Measurements reported in US20250152751A1, “RED-SHIFTED FLUOROPHORES AND METHODS OF USING THE SAME” (GEORGIA STATE UNIVERSITY RESEARCH FOUNDATION, INC., priority 2022, published 2025).

How the values were obtained:
[1] = Optical properties of the fluorophores measured in ethanol, compared to ICG; type: physicochemical; conditions: for Φ^a (%): compared to ICG
Method in brief: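 The fluorophores were measured in ethanol, alongside a reference dye. Recorded optical properties were absorption maximum, emission maximum, Stokes shift, quantum yield and molar extinction coefficient.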

[2] = Solvatochromism: absorption maximum in different solvents; type: physicochemical

Row | SMILES | Stokes Shift (nm) [1] [nm] | λabs (nm) [1] [nm] | λem (nm) [1] [nm] | ϵ (cm^−1 M^−1) [1] | Φ^a (%) [1] [%] | λabs (nm) Acetonitrile [2] [nm] | λabs (nm) DMSO [2] [nm] | λabs (nm) Ethanol [2] [nm] | λabs (nm) Methanol [2] [nm]
1 | CCN1/C(=C/C=C2\CC(C(C)(C)C)CC(/C=C(\C#N)C(=O)O)=C2Sc2ccncc2)C(C)(C)c2cc(Cl)ccc21 (centres unmarked) [Compound 79] | 13 | 805 | 818 | 147,300 cm^−1 M^−1 | 11.3 | 800 | 815 | 805 | 800
2 | CCCCN1/C(=C/C=C2\CCCC(C=C(C#N)C#N)=C2Cl)C(C)(C)c2c1ccc1ccccc21 [Compound 76] | 6 | 820 | 826 | 146,400 cm^−1 M^−1 | 8.8 | 820 | 835 | 820 | 820
3 | CCN1C(=CC=C2CC(C(C)(C)C)CC(C=C(C#N)C(=O)O)=C2N2CCC(CO)CC2)C(C)(C)c2ccccc21 (centres unmarked) [Compound 84] | 124 | 660 | 784 | 75,100 cm^−1 M^−1 | 18.6 | 640 | 665 | 660 | 650
4 | CCN1C(=CC=C2CCCC(C=C(C#N)C(=O)O)=C2N2CCC(CO)CC2)C(C)(C)c2cc(Br)ccc21 [Compound 82] | 124 | 675 | 794 | 61,000 cm^−1 M^−1 | 17.3 | 640 | 670 | 675 | 665
5 | CCCCN1C(=CC=C2CCCC(C=C(C#N)C(=O)O)=C2Sc2ccncc2)C(C)(C)c2ccccc21 [Compound 78] | 15 | 800 | 815 | 166,300 cm^−1 M^−1 | 11.3 | 795 | 810 | 800 | 800
6 | CCN1C(=CC=C2CCCC(C=C(C#N)C#N)=C2Cl)C(C)(C)c2cc(Br)ccc21 [Compound 74] | 19 | 790 | 809 | 152,300 cm^−1 M^−1 | 11.3 | 790 | 800 | 790 | 785
7 | CCN1C(=CC=C2CCCC(C=C(C#N)C#N)=C2Cl)C(C)(C)c2cc(Cl)ccc21 [Compound 75] | 15 | 790 | 805 | 145,400 cm^−1 M^−1 | 11.5 |  |  |  | 
8 | CCN1C(=CC=C2CC(c3ccccc3)CC(C=C(C#N)C(=O)O)=C2Cl)C(C)(C)c2cc(Cl)ccc21 (centres unmarked) [Compound 69] | 11 | 790 | 801 | 136,500 cm^−1 M^−1 | 11.7 |  |  |  | 
9 | CN1C(=CC=C2CCCC(C=C(C#N)C(=O)O)=C2N2CCC(CO)CC2)C(C)(C)c2cc(Br)ccc21 [Compound 81] | 126 | 665 | 791 | 64,200 cm^−1 M^−1 | 18.3 |  |  |  | 
10 | CCN1C(=CC=C2CC(c3ccccc3)CC(C=C(C#N)C(=O)O)=C2Cl)C(C)(C)c2ccccc21 (centres unmarked) [Compound 66] | 15 | 780 | 795 | 155,700 cm^−1 M^−1 | 12.4 |  |  |  | 
